Data reported in PMC10408569, “Recruitment of hexahydroquinoline as anticancer scaffold targeting inhibition of wild and mutants EGFR (EGFR^WT, EGFR^T790M, and EGFR^L858R)” (Journal of Enzyme Inhibition and Medicinal Chemistry, 2023).

Tests used:
T-47D = experiment: NCI-60 anticancer screening (SRB); format: cell-based; conditions: Homo sapiens, T47D, breast cancer, one dose 10 μM, read-out: Growth Inhibition Percentage (GI %)
MALME-3M = experiment: NCI-60 anticancer screening (SRB); format: cell-based; conditions: Homo sapiens, melanoma, one dose 10 μM, read-out: Growth Inhibition Percentage (GI %)
A549/ATCC = experiment: NCI-60 anticancer screening (SRB); format: cell-based; conditions: Homo sapiens; A549/ATCC, NSC lung cancer; one dose 10 μM; read-out: Growth Inhibition Percentage (GI %)
CAKI-1 = experiment: NCI-60 anticancer screening (SRB); format: cell-based; conditions: Homo sapiens; CAKI-1, renal cancer; one dose 10 μM; read-out: Growth Inhibition Percentage (GI %)
SNB-75 = experiment: NCI-60 anticancer screening (SRB); format: cell-based; conditions: Homo sapiens; SNB-75, CNS cancer; one dose 10 μM; read-out: Growth Inhibition Percentage (GI %)
786-0 = experiment: NCI-60 anticancer screening (SRB); format: cell-based; conditions: Homo sapiens; 786-0, renal cancer; one dose 10 μM; read-out: Growth Inhibition Percentage (GI %)
MDA-MB-435 = experiment: NCI-60 anticancer screening (SRB); format: cell-based; conditions: Homo sapiens; MDA-MB-435, melanoma; one dose 10 μM; read-out: Growth Inhibition Percentage (GI %)
HT29 = experiment: NCI-60 anticancer screening (SRB); format: cell-based; conditions: Homo sapiens, HT-29; HT29, colon cancer; one dose 10 μM; read-out: Growth Inhibition Percentage (GI %)
SW-620 = experiment: NCI-60 anticancer screening (SRB); format: cell-based; conditions: Homo sapiens; SW-620, colon cancer; one dose 10 μM; read-out: Growth Inhibition Percentage (GI %)
HOP-62 = experiment: NCI-60 anticancer screening (SRB); format: cell-based; conditions: Homo sapiens; HOP-62, NSC lung cancer; one dose 10 μM; read-out: Growth Inhibition Percentage (GI %)
NCI 60 cancer cell lines = experiment: NCI-60 anticancer screening (SRB), whole panel; format: cell-based, human; conditions: mean across the NCI-60 panel; one dose 10 μM
SK-MEL-5 = experiment: NCI-60 anticancer screening (SRB); format: cell-based; conditions: Homo sapiens; SK-MEL-5, melanoma; one dose 10 μM; read-out: Growth Inhibition Percentage (GI %)
SK-MEL-28 = experiment: NCI-60 anticancer screening (SRB); format: cell-based; conditions: Homo sapiens; SK-MEL-28, melanoma; one dose 10 μM; read-out: Growth Inhibition Percentage (GI %)
HCT-15 = experiment: NCI-60 anticancer screening (SRB); format: cell-based; conditions: Homo sapiens; HCT-15, colon cancer; one dose 10 μM; read-out: Growth Inhibition Percentage (GI %)
KM 12 = experiment: NCI-60 anticancer screening (SRB); format: cell-based; conditions: Homo sapiens, KM12; KM 12, colon cancer; one dose 10 μM; read-out: Growth Inhibition Percentage (GI %)
OVCAR-8 = experiment: NCI-60 anticancer screening (SRB); format: cell-based; conditions: Homo sapiens; OVCAR-8, ovarian cancer; one dose 10 μM; read-out: Growth Inhibition Percentage (GI %)
SR = experiment: NCI-60 anticancer screening (SRB); format: cell-based; conditions: Homo sapiens, leukemia, one dose 10 μM, read-out: Growth Inhibition Percentage (GI %)
OVCAR-4 = experiment: NCI-60 anticancer screening (SRB); format: cell-based; conditions: Homo sapiens; OVCAR-4, ovarian cancer; one dose 10 μM; read-out: Growth Inhibition Percentage (GI %)
K-562 = experiment: NCI-60 anticancer screening (SRB); format: cell-based; conditions: Homo sapiens, K562; K-562, leukemia; one dose 10 μM; read-out: Growth Inhibition Percentage (GI %)
PC-3 = experiment: NCI-60 anticancer screening (SRB); format: cell-based; conditions: Homo sapiens; PC-3, prostate cancer; one dose 10 μM; read-out: Growth Inhibition Percentage (GI %)
SK-OV-3 = experiment: NCI-60 anticancer screening (SRB); format: cell-based; conditions: Homo sapiens; SK-OV-3, ovarian cancer; one dose 10 μM; read-out: Growth Inhibition Percentage (GI %)
UACC-257 = experiment: NCI-60 anticancer screening (SRB); format: cell-based; conditions: Homo sapiens; UACC-257, melanoma; one dose 10 μM; read-out: Growth Inhibition Percentage (GI %)
NCI-H460 = experiment: NCI-60 anticancer screening (SRB); format: cell-based; conditions: Homo sapiens; NCI-H460, NSC lung cancer; one dose 10 μM; read-out: Growth Inhibition Percentage (GI %)
MDA-MB-231 = experiment: NCI-60 anticancer screening (SRB); format: cell-based; conditions: Homo sapiens; MDA-MB-231, breast cancer; one dose 10 μM; read-out: Growth Inhibition Percentage (GI %)
EKVX = experiment: NCI-60 anticancer screening (SRB); format: cell-based; conditions: Homo sapiens, NSC lung cancer, one dose 10 μM, read-out: Growth Inhibition Percentage (GI %)
HOP-92 = experiment: NCI-60 anticancer screening (SRB); format: cell-based; conditions: Homo sapiens; HOP-92, NSC lung cancer; one dose 10 μM; read-out: Growth Inhibition Percentage (GI %)
A498 = experiment: NCI-60 anticancer screening (SRB); format: cell-based; conditions: Homo sapiens; A498, renal cancer; one dose 10 μM; read-out: Growth Inhibition Percentage (GI %)
UACC-62 = experiment: NCI-60 anticancer screening (SRB); format: cell-based; conditions: Homo sapiens; UACC-62, melanoma; one dose 10 μM; read-out: Growth Inhibition Percentage (GI %)
IGROV1 = experiment: NCI-60 anticancer screening (SRB); format: cell-based; conditions: Homo sapiens, IGROV-1; IGROV1, ovarian cancer; one dose 10 μM; read-out: Growth Inhibition Percentage (GI %)
HL-60(TB) = experiment: NCI-60 anticancer screening (SRB); format: cell-based; conditions: Homo sapiens, leukemia, one dose 10 μM, read-out: Growth Inhibition Percentage (GI %)
M14 = experiment: NCI-60 anticancer screening (SRB); format: cell-based; conditions: Homo sapiens; M14, melanoma; one dose 10 μM; read-out: Growth Inhibition Percentage (GI %)
MOLT-4 = experiment: NCI-60 anticancer screening (SRB); format: cell-based; conditions: Homo sapiens; MOLT-4, leukemia; one dose 10 μM; read-out: Growth Inhibition Percentage (GI %)

Row | SMILES | inhibition at 10 µM (T-47D) | inhibition at 10 µM (MALME-3M) | melting point | inhibition at 10 µM (A549/ATCC) | inhibition at 10 µM (CAKI-1) | inhibition at 10 µM (SNB-75) | inhibition at 10 µM (786-0) | inhibition at 10 µM (MDA-MB-435) | inhibition at 10 µM (HT29) | inhibition at 10 µM (SW-620) | inhibition at 10 µM (HOP-62) | GI % mean (NCI 60 cancer cell lines) | inhibition at 10 µM (SK-MEL-5) | inhibition at 10 µM (SK-MEL-28) | inhibition at 10 µM (HCT-15) | inhibition at 10 µM (KM 12) | inhibition at 10 µM (OVCAR-8) | inhibition at 10 µM (SR) | inhibition at 10 µM (OVCAR-4) | inhibition at 10 µM (K-562) | further results
1 | CCOC(=O)C1=C(N)N(c2ccc(Cl)cc2)C2=C(C(=O)CC(C)(C)C2)C1c1ccc(OC)cc1 (racemic) [8h, (±)-Ethyl 2-amino-1–(4-chlorophenyl)-4–(4-methoxyphenyl)-7,7-dimethyl-5-oxo-1,4,5,6,7,8-hexahydroquinoline-3-carboxylate] | < 10% | < 10% | 255 to 257 °C | < 10% | < 10% | < 10% | < 10% | < 10% | < 10% | < 10% | < 10% | - ((-) = GI % mean less than 10) | < 10% | < 10% | < 10% | < 10% | < 10% | < 10% | < 10% | < 10% | inhibition at 10 µM (PC-3): < 10%; inhibition at 10 µM (SK-OV-3): < 10%; inhibition at 10 µM (UACC-257): < 10%; inhibition at 10 µM (NCI-H460): < 10%; inhibition at 10 µM (MDA-MB-231): < 10%; inhibition at 10 µM (EKVX): < 10%; inhibition at 10 µM (HOP-92): < 10%; inhibition at 10 µM (A498): < 10%; inhibition at 10 µM (UACC-62): < 10%; inhibition at 10 µM (IGROV1): < 10%; inhibition at 10 µM (HL-60(TB)): < 10%; inhibition at 10 µM (M14): < 10%; inhibition at 10 µM (MOLT-4): < 10%
2 | CCOC(=O)C1=C(N)N(c2ccc(C)cc2)C2=C(C(=O)CC(C)(C)C2)C1c1ccc([N+](=O)[O-])cc1 (racemic) [8j, (±)-Ethyl 2-amino-7,7-dimethyl-1–(4-methylphenyl)-4–(4-nitrophenyl)-5-oxo-1,4,5,6,7,8-hexahydroquinoline-3-carboxylate] | < 10% | < 10% | 270 to 272 °C | < 10% | < 10% | < 10% | < 10% | < 10% | < 10% | < 10% | < 10% | - ((-) = GI % mean less than 10) | < 10% | < 10% | < 10% | < 10% | < 10% | < 10% | < 10% | < 10% | inhibition at 10 µM (PC-3): < 10%; inhibition at 10 µM (SK-OV-3): < 10%; inhibition at 10 µM (UACC-257): < 10%; inhibition at 10 µM (NCI-H460): < 10%; inhibition at 10 µM (MDA-MB-231): < 10%; inhibition at 10 µM (EKVX): < 10%; inhibition at 10 µM (HOP-92): < 10%; inhibition at 10 µM (A498): < 10%; inhibition at 10 µM (UACC-62): 13%; inhibition at 10 µM (IGROV1): < 10%; inhibition at 10 µM (HL-60(TB)): < 10%; inhibition at 10 µM (M14): < 10%; inhibition at 10 µM (MOLT-4): < 10%
3 | CCOC(=O)C1=C(N)N(c2ccc(Cl)cc2)C2=C(C(=O)CC(C)(C)C2)C1c1ccc([N+](=O)[O-])cc1 (racemic) [8k, (±)-Ethyl2-amino-1–(4-chlorophenyl)-7,7-dimethyl-4–(4-nitrophenyl)-5-oxo-1,4,5,6,7,8-hexahydroquinoline-3-carboxylate] | 27% | < 10% | 198 to 200 °C | 11% | 11% | < 10% | < 10% | < 10% | < 10% | < 10% | < 10% | - ((-) = GI % mean less than 10) | < 10% | < 10% | 18% | 12% | 12% | 32% | < 10% | 26% | inhibition at 10 µM (PC-3): 26%; inhibition at 10 µM (SK-OV-3): < 10%; inhibition at 10 µM (UACC-257): < 10%; inhibition at 10 µM (NCI-H460): < 10%; inhibition at 10 µM (MDA-MB-231): < 10%; inhibition at 10 µM (EKVX): 15%; inhibition at 10 µM (HOP-92): < 10%; inhibition at 10 µM (A498): < 10%; inhibition at 10 µM (UACC-62): 29%; inhibition at 10 µM (IGROV1): < 10%; inhibition at 10 µM (HL-60(TB)): 22%; inhibition at 10 µM (M14): < 10%; inhibition at 10 µM (MOLT-4): 27%
4 | CCOC(=O)C1=C(N)N(c2ccccc2)C2=C(C(=O)CC(C)(C)C2)C1c1ccc(N2CCOCC2)cc1 (racemic) [8l, (±)-Ethyl 2-amino-7,7-dimethyl-4-[4-(morpholin-4-yl)phenyl]-5-oxo-1-phenyl-1,4,5,6,7,8-hexahydroquinoline-3-carboxylate] | < 10% | < 10% | 193 to 195 °C | < 10% | 18% | < 10% | 16% | < 10% | < 10% | < 10% | < 10% | - ((-) = GI % mean less than 10) | < 10% | < 10% | < 10% | < 10% | < 10% | 16% | < 10% | < 10% | inhibition at 10 µM (PC-3): < 10%; inhibition at 10 µM (SK-OV-3): < 10%; inhibition at 10 µM (UACC-257): < 10%; inhibition at 10 µM (NCI-H460): < 10%; inhibition at 10 µM (MDA-MB-231): < 10%; inhibition at 10 µM (EKVX): < 10%; inhibition at 10 µM (HOP-92): 12%; inhibition at 10 µM (A498): < 10%; inhibition at 10 µM (UACC-62): 17%; inhibition at 10 µM (IGROV1): < 10%; inhibition at 10 µM (HL-60(TB)): < 10%; inhibition at 10 µM (M14): < 10%; inhibition at 10 µM (MOLT-4): < 10%
